# Experimental data taken from patent publication US10770169B2, “Method of providing a treatment to a subject based on a dynamic pathway map” (THE REGENTS OF THE UNIVERSITY OF CALIFORNIA, priority 2010, dated 2020).
# Read-outs that look alike come from different tables or passages of the source.
# System: panel of 55 breast cancer cell lines
# Experiment: Cell growth inhibition assay (Cell Titer Glo, 72 h, 9 doses; GI50, TGI, LC50)
# Assay type: cell-based, human
# Details: Homo sapiens, read-out: GI50 (converted)
smiles,measurement,setting,value
CC[C@@]1(O)C(=O)OCc2c1cc1n(c2=O)Cc2cc3c(CN(C)C)c(O)ccc3nc2-1 [Topotecan],GI50,"AU565, AU565 cell line, censored GI50 values",0.0186 µM
same,GI50,"AU565, cell line AU565",0.0186 µM
same,GI50,"BT-474, BT474 cell line, censored GI50 values",2.51 µM
same,GI50,"BT-474, cell line BT474",2.51 µM
same,GI50,"BT-483, BT483 cell line, censored GI50 values",0.0162 µM
same,GI50,"BT-483, cell line BT483",0.0162 µM
same,GI50,"CAMA-1, CAMA1 cell line, censored GI50 values",0.398 µM
same,GI50,"CAMA-1, cell line CAMA1",0.398 µM
same,GI50,"HCC38, HCC38 cell line, censored GI50 values",0.00372 µM
same,GI50,"HCC38, cell line HCC38",0.00372 µM
same,GI50,"HCC70, HCC70 cell line, censored GI50 values",19.1 µM
same,GI50,"HCC70, cell line HCC70",19.1 µM
same,GI50,"HCC202, HCC202 cell line, censored GI50 values",0.759 µM
same,GI50,"HCC202, cell line HCC202",0.759 µM
same,GI50,"HCC1143, HCC1143 cell line, censored GI50 values",0.257 µM
same,GI50,"HCC1143, cell line HCC1143",0.257 µM
same,GI50,"HCC1187, HCC1187 cell line, censored GI50 values",0.309 µM
same,GI50,"HCC1187, cell line HCC1187",0.309 µM
same,GI50,"HCC1395, HCC1395 cell line, censored GI50 values",0.0151 µM
same,GI50,"HCC1395, cell line HCC1395",0.0151 µM
same,GI50,"HCC1419, HCC1419 cell line, censored GI50 values",0.363 µM
same,GI50,"HCC1419, cell line HCC1419",0.363 µM
same,GI50,"HCC1428, HCC1428 cell line, censored GI50 values",0.447 µM
same,GI50,"HCC1428, cell line HCC1428",0.447 µM
same,GI50,"HCC1500, HCC1500 cell line, censored GI50 values",0.0145 µM
same,GI50,"HCC1500, cell line HCC1500",0.0145 µM
same,GI50,"HCC1806, HCC1806 cell line, censored GI50 values",0.0204 µM
same,GI50,"HCC1806, cell line HCC1806",0.0204 µM
same,GI50,"HCC1954, HCC1954 cell line, censored GI50 values",0.302 µM
same,GI50,"HCC1954, cell line HCC1954",0.302 µM
same,GI50,"HCC2185 cell line, censored GI50 values",0.0407 µM
same,GI50,"HCC3153 cell line, censored GI50 values",0.209 µM
same,GI50,"LY2 cell line, censored GI50 values",0.257 µM
same,GI50,"MCF7, MCF7 cell line, censored GI50 values",1.32 µM
same,GI50,"MCF7, cell line MCF7",1.32 µM
same,GI50,"MDA-MB-134-VI, MDAMB134VI cell line, censored GI50 values",0.115 µM
same,GI50,"MDA-MB-157, MDAMB157 cell line, censored GI50 values",0.398 µM
same,GI50,"MDA-MB-157, cell line MDAMB157",0.398 µM
same,GI50,"MDA-MB-175-VII, MDAMB175VII cell line, censored GI50 values",2.88 µM
same,GI50,"MDA-MB-231, MDAMB231 cell line, censored GI50 values",1.17 µM
same,GI50,"MDA-MB-231, cell line MDAMB231",1.17 µM
same,GI50,"MDA-MB-361, MDAMB361 cell line, censored GI50 values",0.525 µM
same,GI50,"MDA-MB-361, cell line MDAMB361",0.525 µM
same,GI50,"MDA-MB-415, MDAMB415 cell line, censored GI50 values",0.191 µM
same,GI50,"MDA-MB-415, cell line MDAMB415",0.191 µM
same,GI50,"MDA-MB-436, MDAMB436 cell line, censored GI50 values",0.0302 µM
same,GI50,"MDA-MB-436, cell line MDAMB436",0.0302 µM
same,GI50,"MDA-MB-453, MDAMB453 cell line, censored GI50 values",0.0851 µM
same,GI50,"MDA-MB-453, cell line MDAMB453",0.0851 µM
same,GI50,"MDA-MB-468, MDAMB468 cell line, censored GI50 values",0.0457 µM
same,GI50,"MDA-MB-468, cell line MDAMB468",0.0457 µM
same,GI50,"SK-BR-3, SKBR3 cell line, censored GI50 values",0.0112 µM
same,GI50,"SK-BR-3, cell line SKBR3",0.0112 µM
same,GI50,"SUM44PE cell line, censored GI50 values",0.372 µM
same,GI50,"SUM52PE, SUM52PE cell line, censored GI50 values",0.00832 µM
same,GI50,"SUM52PE, cell line SUM52PE",0.00832 µM
same,GI50,"SUM185PE, SUM185PE cell line, censored GI50 values",0.0631 µM
same,GI50,"SUM185PE, cell line SUM185PE",0.0631 µM
same,GI50,"SUM1315MO2, SUM1315MO2 cell line, censored GI50 values",0.00832 µM
same,GI50,"SUM-159-PT, SUM159PT cell line, censored GI50 values",0.741 µM
same,GI50,"SUM-159-PT, cell line SUM159PT",0.741 µM
same,GI50,"UACC-812, UACC812 cell line, censored GI50 values",0.0603 µM
same,GI50,"UACC-812, cell line UACC812",0.0603 µM
same,GI50,"UACC-893, UACC893 cell line, censored GI50 values",0.347 µM
same,GI50,"UACC-893, cell line UACC893",0.347 µM
same,GI50,"ZR-75-1, ZR751 cell line, censored GI50 values",0.0407 µM
same,GI50,"ZR-75-1, cell line ZR751",0.0407 µM
same,GI50,"ZR-75B, ZR75B cell line, censored GI50 values",0.0631 µM
same,GI50,"ZR-75B, cell line ZR75B",0.0631 µM
same,GI50,cell line HCC2185,0.0407 µM
same,GI50,cell line HCC3153,0.209 µM
same,GI50,cell line LY2,0.257 µM
same,GI50,cell line MDAMB134V,0.115 µM
same,GI50,cell line MDAMB175V,2.88 µM
same,GI50,cell line SUM44PE,0.372 µM
same,GI50,cell line SUM1315MO,0.00832 µM
